Results on one molecule are retold here after US10463772B2, “Prostaglandin and prostamide drug delivery systems and intraocular therapeutic uses thereof” (ALLERGAN, INC., priority 2008, dated 2019).

The conditions of series [1]: cited from earlier work.
The nature of series [2]: Heat stability of latanoprost (biological activity). In kind it is physicochemical. The conditions noted are these: on heating.

`CC(C)OC(=O)CCC/C=C\C[C@@H]1[C@@H](CC[C@@H](O)CCc2ccccc2)[C@H](O)C[C@@H]1O` [latanoprost]: in series [1], the “Solubility in acetone, ethanol, ethyl acetate, isopropanol, methanol and octanol” value is “freely soluble”; the Solubility in acetonitrile result is on record as “very soluble”; the Solubility in water result is on record as “practically insoluble”. The “Temperature above which latanoprost begins to lose biological activity” value in series [2] was “about 56 °C”.
